The test system of data set [1] is Hepatitis B virus. Briefly: Antiviral activity against Hepatitis B virus infected in human HepG2.2.15 cells by solid phase radioimmunoassay. To be noted: HepG2 2.2.15. The data set is classed as functional, organism-based.
Data set [2] can be described thus: Cytotoxicity against human HepG2.2.15 cells. Type of data set: cell-based, HepG2 2.2.15.
Data set [3] in a line: Selectivity index, ratio of CC50 for human HepG2.2.15 cells to IC50 for Hepatitis B virus. Type of data set: toxicity. The note with it: read-out: Ratio CC50/IC50.
Data set [4] is described as follows: Solubility of compound at pH 2 by HPLC-UV analysis. Type of data set: physicochemical. The note with it: buffer.
A short description of data set [5]: Half life in ICR mouse at 50 mg/kg, po. To be noted: in vivo. The data set is classed as ADME, organism-based.
Data set [6] in a line: Tmax in ICR mouse at 50 mg/kg, po. The data set is classed as ADME, organism-based. The note with it: in vivo.
Data set [7] can be described thus: Cmax in ICR mouse at 50 mg/kg, po. The arrangement: dose 50 mg/kg, route oral. The note with it: in vivo. The data set is classed as ADME, organism-based.
The nature of data set [8]: AUC (0 to t) in ICR mouse at 50 mg/kg, po. To be noted: in vivo. The data set is classed as ADME, organism-based.
Data set [9] is described as follows: MRT in ICR mouse at 50 mg/kg, po. The data set is classed as ADME, organism-based. The note with it: in vivo.
Data set [10] deals with Hepatitis B virus. Briefly: Antiviral activity against Hepatitis B virus infected in C57BL/6 mouse assessed as reduction in viral DNA at 0.93 mmol/kg, po administered bid and measured on day 2 by qRT-PCR analysis. Type of data set: functional. On the technique in general: Quantitative PCR measures a nucleic acid by following its amplification.
The subject of data set [11] is Hepatitis B virus. Description: Antiviral activity against Hepatitis B virus infected in C57BL/6 mouse assessed as reduction in viral DNA at 0.93 mmol/kg, po administered bid and measured on day 4 by qRT-PCR analysis. Type of data set: functional.
Data set [12] can be described thus: Toxicity in C57BL/6 mouse infected with Hepatitis B virus assessed as reduction in body weight at 0.93 mmol/kg, po administered bid and observed for 6 days. The data set is classed as organism-based. The note with it: in vivo, 144 h.
The test system of data set [13] is Hepatitis B virus. Briefly: Antiviral activity against Hepatitis B virus infected in C57BL/6 mouse assessed as reduction in viral DNA at 0.1 mg/kg, po measured upto 6 days by qRT-PCR analysis. Type of data set: functional.
Data set [14] in a line: Solubility of compound assessed as 4-fluoro-3-[(4-hydroxy-1-piperidyl)sulfonyl]-N-(3,4,5-trifluorophenyl)benzamide level at pH 2. Type of data set: physicochemical. To be noted: buffer.
The nature of data set [15]: Half life in ICR mouse assessed as 4-fluoro-3-[(4-hydroxy-1-piperidyl)sulfonyl]-N-(3,4,5-trifluorophenyl)benzamide level at 50 mg/kg, po. The data set is classed as ADME, organism-based. The note with it: in vivo.
Data set [16] can be described thus: Tmax in ICR mouse assessed as 4-fluoro-3-[(4-hydroxy-1-piperidyl)sulfonyl]-N-(3,4,5-trifluorophenyl)benzamide level at 50 mg/kg, po. The data set is classed as ADME, organism-based. The note with it: in vivo.
The nature of data set [17]: Cmax in ICR mouse assessed as 4-fluoro-3-[(4-hydroxy-1-piperidyl)sulfonyl]-N-(3,4,5-trifluorophenyl)benzamide level at 50 mg/kg, po. Type of data set: ADME, organism-based. The arrangement: dose 50 mg/kg, route oral. The note with it: in vivo.
Data set [18] is described as follows: AUC (0 to t) in ICR mouse assessed as 4-fluoro-3-[(4-hydroxy-1-piperidyl)sulfonyl]-N-(3,4,5-trifluorophenyl)benzamide level at 50 mg/kg, po. Type of data set: ADME, organism-based. To be noted: in vivo.
A short description of data set [19]: MRT in ICR mouse assessed as 4-fluoro-3-[(4-hydroxy-1-piperidyl)sulfonyl]-N-(3,4,5-trifluorophenyl)benzamide level at 50 mg/kg, po. Type of data set: ADME, organism-based. The note with it: in vivo.
In data set [20] the test system is Hepatitis B virus. Briefly: Antiviral activity against Hepatitis B virus infected in orally dosed C57BL/6 mouse assessed as reduction in viral DNA administered bid for daily and measured upto 6 days by qRT-PCR analysis. Type of data set: functional, organism-based.
Data set [21] in a line: Toxicity in C57BL/6 mouse infected with Hepatitis B virus assessed as reduction in body weight at 0.23 and 0.93 mmol/kg, po administered bid and observed for 6 days. The note with it: in vivo, 144 h. The data set is classed as organism-based.

≈ marks a conversion by molar mass, not a printed value.

In turn, `N[C@@H](Cc1ccccc1)C(=O)OC1CCN(S(=O)(=O)c2cc(C(=O)Nc3cc(F)c(F)c(F)c3)ccc2F)CC1` came in with a half-maximal inhibitory concentration (IC50) with Hepatitis B virus [1] of 350 nM. The 50% cytotoxic concentration (CC50) in data set [2] was more than 10000 nM. Also, the selectivity ratio in data set [3] was more than 28.6.

In turn, `O=C(Nc1cc(F)c(F)c(F)c1)c1ccc(F)c(S(=O)(=O)N2CCC(O)CC2)c1` showed an IC50 in the data set with Hepatitis B virus [1] of 260 nM. Also, in data set [2], the cytotoxic concentration (CC50) is 4810 nM. Besides, the selectivity ratio in data set [3] amounted to 18.5. Besides, the solubility in [4] is 3 µg/mL (≈ 6.94 µM). This compound also showed a half-life in data set [5] of 8.14 h. For the same compound, in data set [6], the time to peak (Tmax) turned out to be 1.08 h. This compound also came in with a Cmax in [7] of 66100 ng/mL. The compound further returned an AUC(0-t) in data set [8] of 456 µg·h/mL. Also, the MRT in data set [9] is 10.7 h. For the same compound, the Activity in the data set on Hepatitis B virus [10] is on record as 0.53 log10IU/ml; in the data set on Hepatitis B virus [11] it was 0.6 log10IU/ml; in [12] it was “Non-Toxic”.

`C[C@H](N)C(=O)OC1CCN(S(=O)(=O)c2cc(C(=O)Nc3cc(F)c(F)c(F)c3)ccc2F)CC1`: in the data set with Hepatitis B virus [1], the half-maximal inhibitory concentration (IC50) was 280 nM. In addition, the 50% cytotoxic concentration (CC50) in [2] was 4810 nM. In addition, the selectivity ratio in data set [3] was 17.2.

As for `CC(C)C[C@H](N)C(=O)OC1CCN(S(=O)(=O)c2cc(C(=O)Nc3cc(F)c(F)c(F)c3)ccc2F)CC1`, the half-inhibitory concentration (IC50) in the data set on Hepatitis B virus [1] turned out to be 280 nM. The compound further came in with a CC50 in data set [2] of 5770 nM. Moreover, the selectivity ratio in [3] stood at 20.6.

With `C=C1[C@H](CO)[C@@H](O)C[C@@H]1n1cnc2c(=O)[nH]c(N)nc21.O` [ENTECAVIR], the Activity with Hepatitis B virus [13] is 1.67 log10IU/ml.

`CC(C)(C)[C@H](N)C(=O)OC1CCN(S(=O)(=O)c2cc(C(=O)Nc3cc(F)c(F)c(F)c3)ccc2F)CC1` showed a concentration for half-maximal inhibition (IC50) in the data set on Hepatitis B virus [1] of 560 nM. The compound further registered a half-maximal cytotoxic concentration (CC50) in [2] of more than 10000 nM. Also, the selectivity ratio in [3] is more than 17.9.

Consider `CCC(C)[C@H](N)C(=O)OC1CCN(S(=O)(=O)c2cc(C(=O)Nc3cc(F)c(F)c(F)c3)ccc2F)CC1` (some centres undefined), for which the IC50 in the data set on Hepatitis B virus [1] amounted to 380 nM. In data set [2], this compound displayed a CC50 of more than 10000 nM. The selectivity ratio in [3] is more than 26.3.

On to `NCC(=O)OC1CCN(S(=O)(=O)c2cc(C(=O)Nc3cc(F)c(F)c(F)c3)ccc2F)CC1`, for which the IC50 in the data set on Hepatitis B virus [1] is 1400 nM. In data set [2], this compound gave a cytotoxic concentration (CC50) of more than 10000 nM. In addition, the selectivity ratio in data set [3] was more than 7.1.

In turn, `CC(C)[C@H](N)C(=O)OC1CCN(S(=O)(=O)c2cc(C(=O)Nc3cc(F)c(F)c(F)c3)ccc2F)CC1` came in with a half-inhibitory concentration (IC50) in the data set with Hepatitis B virus [1] of 340 nM. Besides, the CC50 in [2] was more than 10000 nM. The selectivity ratio in data set [3] is more than 29.4. The compound also gave a half-life in data set [5] of 1.23 h. For the same compound, the time of peak concentration (Tmax) worked out at 0.25 h in data set [6] and 0.5 h in data set [16]. Also, the highest concentration (Cmax) is 11500 ng/mL in [7] and 45170 ng/mL in data set [17]. The compound further had an AUC(0-t) in data set [8] of 6.65 µg·h/mL. Moreover, the values for the MRT in data set [9] and in [19] were 0.97 h and 4.66 h, respectively. Besides, the solubility in [14] was 700 µg/mL (≈ 1320 µM). Moreover, in data set [15], the t1/2 came out at 3.53 h. The AUCt in [18] stood at 258.9 µg·h/mL. Moreover, the Activity entry is “Dose-dependent effect” with Hepatitis B virus [20], 0.75 log10IU/ml with Hepatitis B virus [10], 0.67 log10IU/ml in the data set on Hepatitis B virus [11] and “Non-Toxic” in data set [21].

Usually IC50 stands for the point on the concentration scale where inhibition reaches its midpoint. A low value points to inhibition by little substance. By CC50 is commonly meant the concentration giving 50% cytotoxicity. As a reminder, the solubility is the concentration that dissolves in the medium under given conditions. In general, half-life refers to how long it takes for the measured level to halve. The low end stands for rapid decline, the high end for slow decline. The term Tmax denotes the time at which the peak concentration occurs. One may read the Cmax as the highest concentration seen after dosing. Broadly, the AUC(0-t) is the area under the concentration-time curve up to a stated or last time point. As a reminder, the MRT is the average time that molecules of a dose stay in the body.

(Values after ChEMBL document CHEMBL4619714, “Amino acid prodrugs of NVR3-778: Design, synthesis and anti-HBV activity” (Bioorg Med Chem Lett, 2020).)
